# Assay results reported in PMC7540527, “Synthesis of Antiviral Perfluoroalkyl Derivatives of Teicoplanin and Vancomycin” (Chemmedchem, 2020).
# Structures can show the parent of a compound that is named as a salt. Where two headings read alike, the source gives them in different places.
# Experiments:
# [1] = tested on: influenza A and B viruses; type: cell-based, influenza virus
# [2] = tested on: Enterococcus faecalis ATCC 29212; test: Antibacterial MIC; type: cell-based; conditions: for MIC: Enterococcus faecalis, ATCC29212, read-out: MIC Enterococcus faecalis ATCC 29212
# [3] = tested on: Staphylococcus aureus MSSA ATCC 29213; test: Antibacterial MIC; type: cell-based; conditions: for MIC: Staphylococcus aureus, read-out: MIC Staphylococcus aureus MSSA ATCC 29213
# [4] = tested on: HEL human embryonic lung fibroblast cells
# [5] = tested on: Staphylococcus epidermidis ATCC 35984 biofilm; test: Antibacterial MIC; type: cell-based
# E. faecalis 15376 VanA = test: Antibacterial MIC; type: cell-based, Enterococcus faecalis; conditions: for MIC: Enterococcus faecalis, 15376VANA, read-out: MIC E. faecalis 15376 VanA
# [6] = tested on: Bacillus subtilis ATCC 6633; test: Antibacterial MIC; type: cell-based; conditions: for MIC: Bacillus subtilis, ATCC6633, read-out: MIC Bacillus subtilis ATCC 6633
# HeLa cells = conditions: human
# [7] = tested on: S. aureus MRSA ATCC 33591; test: Antibacterial MIC; type: cell-based, Staphylococcus aureus; conditions: for MIC: Staphylococcus aureus, read-out: MIC S. aureus MRSA ATCC 33591
# [8] = tested on: E. faecalis ATCC 51299 VanB; test: Antibacterial MIC; type: cell-based, Enterococcus faecalis; conditions: for MIC: Enterococcus faecalis, ATCC51299, read-out: MIC E. faecalis ATCC 51299 VanB
# Vero cells = conditions: African green monkey
# [9] = tested on: panel of Gram-positive bacteria; type: cell-based
# [10] = tested on: influenza B virus B/Ned/537/05; test: CPE reduction assay for influenza virus in MDCK cells, influenza B; type: cell-based
# Experimental: The CPE reduction assay for influenza virus was described in full detail in previous publications.41 The virus strains were: A/PR/8/34 (A/H1 N1); A/Virginia/ATCC3/2009 (A/H1 N1pdm); A/HK/7/87 (A/H3 N2); B/Ned/537/05; and B/HK/5/72. On day 0, Madin‐Darby canine kidney (MDCK) cells in 96‐well plates were infected with influenza virus at a multiplicity of infection (MOI) of 0.0004 plaque forming units (PFU) per cell. After three days incubation at 35 °C, virus‐induced CPE and compound cytotoxicity were scored by microscopy, after which the data were confirmed by formazan‐based MTS cell viability assay (CellTiter 96® AQueous One Solution Cell Proliferation Assay from Promega). The antiviral effect was expressed as the compound concentration producing 50 % inhibition of the virus‐induced CPE (EC50). Compound cytotoxicity was expressed as the compound concentration causing minimal changes in cell morphology (MCC), and 50 % cytotoxic concentration (CC50) based on MTS assay.42
# [11] = tested on: influenza A/H1N1 A/Ned/378/05; test: microbe, parasite or virus in culture; type: cell-based, influenza A virus
# in vitro = conditions: dog
# [12] = tested on: influenza A/H3N2 A/Victoria/361/11; test: microbe, parasite or virus in culture; type: cell-based, influenza A virus
molecule,measurement,setting,value
CC(=O)NC1C(OC2c3ccc(c(Cl)c3)Oc3cc4cc(c3O)Oc3ccc(cc3Cl)CC3NC(=O)C(n5cc(COCCOCCOCCOCCOCCCC(F)(F)C(F)(F)C(F)(F)C(F)(F)F)nn5)c5ccc(O)c(c5)Oc5cc(O)cc(c5)C(NC3=O)C(=O)NC4C(=O)NC3C(=O)NC2C(=O)NC(C(=O)O)c2cc(O)cc(O)c2-c2cc3ccc2O)OC(CO)C(O)C1O (centres unmarked) [Compound 16],Activity against influenza strains (in words),[1],robust activity
same,MIC,[2],1 µg/mL
same,MIC,[3],0.5 µg/mL
same,CC50,[4],> 100 µM
same,MIC Staphylococcus epidermidis ATCC 35984 biofilm,[5],0.5 µg/mL
same,MIC,E. faecalis 15376 VanA,2 µg/mL
same,MIC,[6],2 µg/mL
same,CC50,HeLa cells,> 100 µM
same,Cytotoxicity MCC,HeLa cells,> 100
same,CC50,MDCK cells; dog,97 µM
same,Cytotoxicity MCC (minimum cytotoxic concentration),MDCK cells; dog,100 µM
same,MIC,[7],0.5 µg/mL
same,MIC,[8],1 µg/mL
same,CC50,Vero cells,> 100 µM
CC(C)C[C@H](C(=O)N[C@H]1C(=O)N[C@@H](CC(N)=O)C(=O)N[C@H]2C(=O)N[C@H]3C(=O)N[C@H](C(=O)N[C@H](C(=O)O)c4cc(O)cc(O)c4-c4cc3ccc4O)[C@H](O)c3ccc(c(Cl)c3)Oc3cc2cc(c3O)Oc2ccc(cc2Cl)[C@H]1O)n1cc(COCCOCCOCCOCCOCCCC(F)(F)C(F)(F)C(F)(F)C(F)(F)C(F)(F)C(F)(F)C(F)(F)C(F)(F)F)nn1 [Compound 13],MIC,[2],4 µg/mL
same,MIC,[3],8 µg/mL
same,MIC Staphylococcus epidermidis ATCC 35984 biofilm,[5],16 µg/mL
same,MIC,E. faecalis 15376 VanA,256 µg/mL
same,MIC,[6],16 µg/mL
same,Antibacterial activity (in words),[9],moderate activity
same,CC50,HeLa cells,> 100 µM
same,Cytotoxicity MCC,HeLa cells,≥ 100
same,Cytotoxicity in MDCK cells (in words),MDCK cells,highly cytotoxic
same,CC50,MDCK cells; dog,0.8 µM
same,Cytotoxicity MCC (minimum cytotoxic concentration),MDCK cells; dog,0.8 µM
same,MIC,[7],8 µg/mL
same,MIC,[8],32 µg/mL
"CN[C@H](CC(C)C)C(=O)N[C@H]1C(=O)N[C@@H](CC(N)=O)C(=O)N[C@H]2C(=O)N[C@H]3C(=O)N[C@H](C(=O)N[C@H](C(=O)O)c4cc(O)cc(O)c4-c4cc3ccc4O)[C@H](O)c3ccc(c(Cl)c3)Oc3cc2cc(c3O[C@@H]2O[C@H](CO)[C@@H](O)[C@H](O)[C@H]2O[C@H]2C[C@](C)(N)[C@H](O)[C@H](C)O2)Oc2ccc(cc2Cl)[C@H]1O [VAN, vancomycin]",MIC,[2],1 µg/mL
same,MIC,[3],0.5 µg/mL
same,MIC Staphylococcus epidermidis ATCC 35984 biofilm,[5],2 µg/mL
same,MIC,E. faecalis 15376 VanA,256 µg/mL
same,MIC,[6],0.5 µg/mL
same,MIC,[7],0.5 µg/mL
same,MIC,[8],128 µg/mL
CC(=O)N[C@H]1[C@H](O[C@@H]2c3ccc(c(Cl)c3)Oc3cc4cc(c3O)Oc3ccc(cc3Cl)C[C@H]3NC(=O)[C@H](N=[N+]=[N-])c5ccc(O)c(c5)Oc5cc(O)cc(c5)[C@H](NC3=O)C(=O)N[C@H]4C(=O)N[C@H]3C(=O)N[C@@H]2C(=O)N[C@H](C(=O)O)c2cc(O)cc(O)c2-c2cc3ccc2O)O[C@H](CO)[C@@H](O)[C@@H]1O [Compound 14],CC50,MDCK cells; dog,> 100 µM
same,Cytotoxicity MCC (minimum cytotoxic concentration),MDCK cells; dog,>100 µM
CC(=O)NC1C(OC2c3ccc(c(Cl)c3)Oc3cc4cc(c3O)Oc3ccc(cc3Cl)CC3NC(=O)C(n5cc(COCCOCCOCCOCCOCCCC(F)(F)C(F)(F)C(F)(F)C(F)(F)C(F)(F)C(F)(F)C(F)(F)C(F)(F)F)nn5)c5ccc(O)c(c5)Oc5cc(O)cc(c5)C(NC3=O)C(=O)NC4C(=O)NC3C(=O)NC2C(=O)NC(C(=O)O)c2cc(O)cc(O)c2-c2cc3ccc2O)OC(CO)C(O)C1O (centres unmarked) [Compound 18],Activity against influenza strains (in words),[1],without antiviral activity
same,MIC,[2],16 µg/mL
same,MIC,[3],8 µg/mL
same,CC50,[4],> 100 µM
same,MIC Staphylococcus epidermidis ATCC 35984 biofilm,[5],4 µg/mL
same,MIC,E. faecalis 15376 VanA,32 µg/mL
same,MIC,[6],4 µg/mL
same,CC50,HeLa cells,41 µM
same,Cytotoxicity in MDCK cells (in words),MDCK cells,high cytotoxicity
same,CC50,MDCK cells; dog,4.2 µM
same,MIC,[7],4 µg/mL
same,MIC,[8],32 µg/mL
same,CC50,Vero cells,> 100 µM
CC(C)C[C@H](C(=O)N[C@H]1C(=O)N[C@@H](CC(N)=O)C(=O)N[C@H]2C(=O)N[C@H]3C(=O)N[C@H](C(=O)N[C@H](C(=O)O)c4cc(O)cc(O)c4-c4cc3ccc4O)[C@H](O)c3ccc(c(Cl)c3)Oc3cc2cc(c3O)Oc2ccc(cc2Cl)[C@H]1O)n1cc(COCCOCCOCCOCCOCCCC(F)(F)C(F)(F)C(F)(F)C(F)(F)F)nn1 [Compound 12],MIC,[2],8 µg/mL
same,MIC,[3],4 µg/mL
same,MIC Staphylococcus epidermidis ATCC 35984 biofilm,[5],8 µg/mL
same,MIC,E. faecalis 15376 VanA,16 µg/mL
same,MIC,[6],32 µg/mL
same,Antibacterial activity (in words),[9],moderate activity
same,CC50,HeLa cells,> 100 µM
same,Cytotoxicity MCC,HeLa cells,> 100
same,Cytotoxicity in MDCK cells (in words),MDCK cells,highly cytotoxic
same,CC50,MDCK cells; dog,4 µM
same,Cytotoxicity MCC (minimum cytotoxic concentration),MDCK cells; dog,42 µM
same,MIC,[7],8 µg/mL
same,MIC,[8],16 µg/mL
CN[C@H](CC(C)C)C(=O)N[C@H]1C(=O)N[C@@H](CC(N)=O)C(=O)N[C@H]2C(=O)N[C@H]3C(=O)N[C@H](C(=O)N[C@H](C(=O)O)c4cc(O)cc(O)c4-c4cc3ccc4O)[C@H](O)c3ccc(c(Cl)c3)Oc3cc2cc(c3O[C@@H]2O[C@H](CO)[C@@H](O)[C@H](O)[C@H]2O[C@H]2C[C@](C)(N)[C@H](O)[C@H](C)O2)Oc2ccc(cc2Cl)[C@H]1O [vancomycin⋅HCl],EC50,"[10]; Influenza B virus, MDCK, read-out: Antiviral EC50 Influenza B CPE",> 100 µM
same,EC50,"[10]; Influenza B virus, MDCK, read-out: Antiviral EC50 Influenza B MTS",> 100 µM
same,EC50,"[11]; Influenza A virus, H1N1, MDCK, read-out: Antiviral EC50 A/H1N1 CPE",> 100 µM
same,EC50,"[11]; Influenza A virus, H1N1, MDCK, read-out: Antiviral EC50 A/H1N1 MTS",> 100 µM
same,CC50,in vitro,> 100 µM
same,EC50,"[12]; Influenza A virus, H3N2, MDCK, read-out: Antiviral EC50 A/H3N2 CPE",> 100 µM
same,EC50,"[12]; Influenza A virus, H3N2, MDCK, read-out: Antiviral EC50 A/H3N2 MTS",> 100 µM
same,Cytotoxicity MCC (minimum cytotoxic concentration),MDCK cells; dog,>100 µM
CC(=O)NC1C(OC2c3ccc(c(Cl)c3)Oc3cc4cc(c3O)Oc3ccc(cc3Cl)CC3NC(=O)C(n5cc(COCCOCCCC(F)(F)C(F)(F)C(F)(F)C(F)(F)F)nn5)c5ccc(O)c(c5)Oc5cc(O)cc(c5)C(NC3=O)C(=O)NC4C(=O)NC3C(=O)NC2C(=O)NC(C(=O)O)c2cc(O)cc(O)c2-c2cc3ccc2O)OC(CO)C(O)C1O (centres unmarked) [Compound 15],Activity against influenza strains (in words),[1],robust activity
same,MIC,[2],0.5 µg/mL
same,MIC,[3],0.5 µg/mL
same,CC50,[4],> 100 µM
same,MIC Staphylococcus epidermidis ATCC 35984 biofilm,[5],0.5 µg/mL
same,MIC,E. faecalis 15376 VanA,1 µg/mL
same,MIC,[6],0.5 µg/mL
same,CC50,HeLa cells,43 µM
same,CC50,MDCK cells; dog,> 100 µM
same,Cytotoxicity MCC (minimum cytotoxic concentration),MDCK cells; dog,100 µM
same,MIC,[7],0.5 µg/mL
same,MIC,[8],4 µg/mL
same,CC50,Vero cells,> 100 µM
same,Cytotoxicity MCC,Vero cells,> 100
teicoplanin [reference compound],MIC Enterococcus faecalis ATCC 29212,[2],2 µg/mL
same,EC50,"[10]; MDCK cells, B/Ned/537/05, MTS assay, read-out: Antiviral EC50 Influenza B MTS",> 100 µM
same,EC50,"[10]; MDCK cells, B/Ned/537/05, visual CPE scoring, read-out: Antiviral EC50 Influenza B CPE",> 100 µM
same,MIC Staphylococcus aureus MSSA ATCC 29213,[3]; methicillin-sensitive,0.5 µg/mL
same,MIC Staphylococcus epidermidis ATCC 35984 biofilm,[5],2 µg/mL
same,EC50,[11]; read-out: Antiviral EC50 A/H1N1 CPE,> 100 µM
same,EC50,[11]; read-out: Antiviral EC50 A/H1N1 MTS,> 100 µM
same,MIC E. faecalis 15376 VanA,E. faecalis 15376 VanA; vanA gene positive,256 µg/mL
same,MIC Bacillus subtilis ATCC 6633,[6],0.5 µg/mL
same,EC50,[12]; read-out: Antiviral EC50 A/H3N2 CPE,> 100 µM
same,EC50,[12]; read-out: Antiviral EC50 A/H3N2 MTS,> 100 µM
same,CC50,MDCK cells,> 100 µM
same,Cytotoxicity MCC (minimum cytotoxic concentration),MDCK cells,>100 µM
same,MIC S. aureus MRSA ATCC 33591,[7]; methicillin-resistant,0.5 µg/mL
same,MIC E. faecalis ATCC 51299 VanB,[8]; vanB gene positive,4 µg/mL
CC(=O)NC1C(OC2c3ccc(c(Cl)c3)Oc3cc4cc(c3O)Oc3ccc(cc3Cl)CC3NC(=O)C(n5cc(COCCOCCCC(F)(F)C(F)(F)C(F)(F)C(F)(F)C(F)(F)C(F)(F)C(F)(F)C(F)(F)F)nn5)c5ccc(O)c(c5)Oc5cc(O)cc(c5)C(NC3=O)C(=O)NC4C(=O)NC3C(=O)NC2C(=O)NC(C(=O)O)c2cc(O)cc(O)c2-c2cc3ccc2O)OC(CO)C(O)C1O (centres unmarked) [Compound 17],Activity against influenza strains (in words),[1],robust activity
same,MIC,[2],256 µg/mL
same,MIC,[3],16 µg/mL
same,CC50,[4],> 100 µM
same,MIC Staphylococcus epidermidis ATCC 35984 biofilm,[5],16 µg/mL
same,MIC,E. faecalis 15376 VanA,256 µg/mL
same,MIC,[6],128 µg/mL
same,CC50,HeLa cells,> 100 µM
same,Cytotoxicity MCC,HeLa cells,> 100
same,CC50,MDCK cells; dog,44 µM
same,Cytotoxicity MCC (minimum cytotoxic concentration),MDCK cells; dog,100 µM
same,MIC,[7],16 µg/mL
same,MIC,[8],256 µg/mL
same,CC50,Vero cells,> 100 µM
